Values joined by “and” are separate entries in the source; they are usually repeats but may differ in a detail not shown here. Identical values can stand only once. Like-named read-outs stand apart in the source and are kept apart here.
Key:
[1] = tested on: Anopheles gambiae (Kisumu); assay: Membrane feeding, Anopheles gambiae Kisumu strain; assay type: in vivo; conditions: read-out: IC50 [95% CI]
Protocol: Mosquito colonies utilized in the examples were generally maintained as described: The colony of Anopheles stephensi (Sind-Kasur Nijmegen strain) was maintained at the Radboud University Medical Center, Nijmegen, The Netherlands, by 30° C. and 70-80% humidity and on a 12/12 hour day/night cycle. The Anopheles gambiae strains Kisumu and Tiassalé and the Aedes aegypti strains New Orleans and Cayman were reared at the Liverpool Insect Testing Establishment, Liverpool, UK. Kisumu is an insecticide susceptible lab strain. New Orleans was originally colonized by the Centers for Disease Control and Prevention. […]
Isoxazoline compounds fluralaner or afoxolaner were reconstituted in 50% human serum and 50% red blood cells and administered to adult Anopheles stephensi mosquitos via standard membrane feeding. Lethality was assessed 1, 2 or 8 days after exposure. […] The IC50 values of each compound for Anopheles death were determined by logistic regression using a least squares method to find the best fit and are shown in Table 1. IC50 values were calculated by applying a four-parameter logistic regression model using a least-squares method to find the best fit using the Graphpad Prism 5.0 software package. […]

Anopheles stephensi = assay: Standard membrane feeding assay, Anopheles stephensi; assay type: in vivo; conditions: for IC50: Anopheles stephensi; for killing of mosquitos (in words): lethality 1, 2 or 8 days after exposure; for whole blood IC99: mosquitocidal
Protocol: (§1) Mosquito colonies utilized in the examples were generally maintained as described: The colony of Anopheles stephensi (Sind-Kasur Nijmegen strain) was maintained at the Radboud University Medical Center, Nijmegen, The Netherlands, by 30° C. and 70-80% humidity and on a 12/12 hour day/night cycle. The Anopheles gambiae strains Kisumu and Tiassalé and the Aedes aegypti strains New Orleans and Cayman were reared at the Liverpool Insect Testing Establishment, Liverpool, UK. Kisumu is an insecticide susceptible lab strain. New Orleans was originally colonized by the Centers for Disease Control and Prevention. The Tiassalé strain was colonized from Southern Cote D'Ivoire where resistance to all classes of insecticide is found and the Cayman strain was colonized from Grand Cayman, where Aedes aegypti are highly resistant to DDT and pyrethroid insecticides. Both resistant strains are routinely selected with insecticides to ensure the maintenance of resistance, 0.75% permethrin for Cayman and 0.05% deltamethrin for Tiassalé, and profiled for resistance to a range of insecticides, including 4% dieldrin, to which Tiassalé is resistant but Cayman is susceptible.
(§2) Isoxazoline compounds fluralaner or afoxolaner were reconstituted in 50% human serum and 50% red blood cells and administered to adult Anopheles stephensi mosquitos via standard membrane feeding. Lethality was assessed 1, 2 or 8 days after exposure. FIG. 2A represents a plot of viable Anopheles stephensi versus fluralaner concentration at each day of assessment. FIG. 2B represents a plot of viable Anopheles stephensi versus afoxolaner concentration at each day of assessment. […] The IC50 values of each compound for Anopheles death were determined by logistic regression using a least squares method to find the best fit and are shown in Table 1. IC50 values were calculated by applying a four-parameter logistic regression model using a least-squares method to find the best fit using the Graphpad Prism 5.0 software package.
FIG. 2C represents a plot of viable Anopheles stephensi versus fluralaner concentration at each time of assessment. FIG. 2D represents a plot of viable Anopheles stephensi versus afoxolaner concentration at each time of assessment. FIG. 2E represents plots of viable Anopheles stephensi versus concentration of (S)- and (R)-enantiomers of afoxolaner at each time of assessment. […] The IC50 (M) concentrations are also shown for FIGS. 2C and 2D.

[2] = cited from earlier work
[3] = Further in vitro degradation assay, human primary hepatocytes; conditions: for half-life / hepatocyte CLint: human; for metabolization when incubated with human hepatocytes: in words
Protocol: (§3) In a further assay, isoxazolines (fluralaner and afoxolaner) and control compounds (7-Ethoxycoumarin and 7-Hydroxycoumarin [Sigma]) were dissolved in DMSO at 10 and 30 mM respectively, then diluted first 20-fold with 45% methanol in water and a further 10-fold in pre-warmed Williams' Medium E. Cryopreserved human, dog and rat hepatocytes (In Vitro Technologies) were thawed, isolated by percoll gradient and suspended in Williams' Medium E. Cells were then dispensed into the wells of 96-well plates containing 10 μL of diluted compounds, to reach a final concentration of 0.5×10^6 cells/mL and 1 μM of isoxazolines or 3 μM of control. After an incubation at 37° C. of 0, 15, 30, 60 or 90 minutes, the reaction was stopped with acetonitrile. The samples were then shaken for 10 minutes at 500 rpm and centrifuged at 3220 g for 20 minutes. Supernatants were transferred and stored at 4° C. until LC-MS-MS analysis.

[4] = tested on: Anopheles gambiae (Tiassalé); assay: Membrane feeding, Anopheles gambiae Tiassalé strain (rdl mutation); assay type: in vivo; conditions: for IC50: Anopheles gambiae, read-out: IC50 [95% CI]
Protocol: as §1, §2
The membrane feeding experiment described was repeated using the insecticide dieldrin on two strains of Anopheles gambiae: Kisumu and Tiassale. The Tiassale strain has a mutation in the resistance to dieldrin (rdl) locus, which codes for γ-aminobutyric acid (GABA) receptor. The Tiassale strain was resistant to pyrethroids, carbamate, DDT and dieldrin (knockdown resistance (kdr), Ace and rdl mutations). The Kisumu strain was susceptible to killing by all tested insecticides. FIG. 3A represents a plot of percentage survival of Kisumu and Tiassale strains of Anopheles gambiae versus dieldrin concentration. FIG. 3B represents a plot of survival of the Kisumu and Tiassale strains at 10 μM dieldrin. […] Both figures indicate that the dose-response in systemic feed experiment performed here in allows for identification of a resistance profile.
The feed experiment in Anopheles gambiae was repeated using the isoxazoline compounds fluralaner and afoxolaner to determine if the rdl mutation confers resistance to the isoxazoline insecticides. Isoxazoline insecticides target Rdl, but in a location thought to be different from dieldrin. The mosquitos were fed fluralaner or afoxolaner at various concentrations and lethality was assessed after 24 hours. FIG. 4A represents a plot of percentage survival of Kisumu and Tiassale strains of Anopheles gambiae versus fluralaner concentration. FIG. 4B represents a plot of percentage survival of Kisumu and Tiassale strains of Anopheles gambiae versus afoxolaner concentration.

Lutzomyia longipalpis = assay: Membrane feeding, sand fly Lutzomyia longipalpis; conditions: in vivo
Excerpt: (§4) Isoxazoline compounds fluralaner or afoxolaner were reconstituted in 50% human serum and 50% red blood cells and administered to sand flies Lutzomyia longipalpis and Phlebotomus argentipes via standard membrane feeding. These san fly species are vectors for visceral leishmaniasis. FIG. 12A represents a plot of viable Lutzomyia longipalpis versus fluralaner concentration at various times of assessment. FIG. 12B represents a plot of viable Lutzomyia longipalpis versus afoxolaner concentration at various times of assessment. FIG. 12C represents a plot of viable Phlebotomus argentipes versus fluralaner concentration at various times of assessment. FIG. 12D represents a plot of viable Phlebotomus argentipes versus afoxolaner concentration at various times of assessment. […] The EC50 values of each compound for sand fly death were determined by logistic regression using a least squares method to find the best fit and are shown in the figures.

Phlebotomus argentipes = assay: Membrane feeding, sand fly Phlebotomus argentipes; conditions: in vivo
Excerpt: as §4

[5] = Further in vitro degradation assay, rat primary hepatocytes
Protocol: as §3

Aedes aegypti (Cayman) = assay: Membrane feeding, Aedes aegypti Cayman strain; assay type: in vivo; conditions: read-out: IC50 [95% CI]
[6] = Further in vitro degradation assay, dog primary hepatocytes
Protocol: as §3

[7] = tested on: Aedes aegypti (New Orleans); assay: Membrane feeding, Aedes aegypti New Orleans strain; assay type: in vivo; conditions: read-out: IC50 [95% CI]
[8] = Brain homogenate binding assay (equilibrium dialysis)
Protocol: Briefly, frozen tissue homogenate (homogenized with buffer at a certain volume ratio) was used as a test matrix. The tissue homogenate was purchased from Bioreclamation (Hicksville, N.Y., USA) or prepared by WuXi AppTec.
Isoxazoline compounds were spiked into blank tissue homogenate at the test concentration. Triplicate samples were used.
An appropriate volume of spiked tissue sample was removed before incubation for recovery calculation. An aliquot (e.g., 150 μL) of matrix sample was added to the donor side of the chamber (donor chamber) in a dialyzer plate (HTD dialysis device or RED device) and a certain amount of dialysis buffer was loaded to the other side of the chamber (receiver chamber). Triplicate incubations were performed (or other replicate number according to specific requirement).
The dialyzer plate was placed into a humidified incubator with 5% CO2 and incubated at 37° C. for appointed time (the general incubation time is 4-6 h).
After incubation, samples were removed from the donor side as well as the receiver side.
The samples were matched with appropriate amount of the opposite blank matrix (tissue homogenate or buffer). […]
The samples were analyzed by LC-MS/MS. Test compound concentrations in matrix and buffer samples were assessed based on the peak area ratios (PAR) of analyte/internal standard (no standard curve).

With `O=C(CNC(=O)c1ccc(C2=NO[C@](c3cc(Cl)cc(C(F)(F)F)c3)(C(F)(F)F)C2)c2ccccc12)NCC(F)(F)F` (racemic) [Afoxolaner, afoxolaner] the IC50 ([1]; 24 h) was 0.101 µM, the IC50 (Anopheles stephensi; 24 h, read-out: IC50 (Anopheles death)) was 0.107 µM and the IC50 (Anopheles stephensi; 24 h, read-out: IC50 [95% CI]) was 0.107 µM. For the same molecule, the IC50 (Anopheles stephensi; 48 h, read-out: IC50 (Anopheles death)) was 0.034 µM, the IC50 (Anopheles stephensi; 192 h, read-out: IC50 (Anopheles death)) was 0.014 µM and the “killing of mosquitos (in words)” value (Anopheles stephensi) was “effective at killing the mosquitos in a dose-dependent manner”. The “whole blood IC99” value (Anopheles stephensi) was 233 nM and 146 ng/mL, the “embryo-fetal development in rats” value [2] was “unaffected” and the half-life ([3]; hepatocytes) was > 3.61 h. For the same molecule, the hepatocyte CLint ([3]; hepatocytes) was < 6.4 µL/min/1e6 cells, the “metabolization when incubated with human hepatocytes” value [3] was “Neither fluralaner nor afoxolaner showed measurable metabolization” and the IC50 ([4]; 24 h) was 0.101 µM. For the same molecule, the “activity against strain carrying the resistance-to-dieldrin (rdl) mutation (in words)” value ([4]; Tiassalé strain) was “fully active”, the “killing of sand flies (in words)” value (Lutzomyia longipalpis) was “effective at killing the sand flies in a dose-dependent manner” and the “killing of sand flies (in words)” value (Phlebotomus argentipes) was “effective at killing the sand flies in a dose-dependent manner”. The half-life ([5]; hepatocytes) was > 3.61 h, the hepatocyte CLint ([5]; hepatocytes) was < 6.4 µL/min/1e6 cells and the IC50 (Aedes aegypti (Cayman); 24 h) was 0.0902 µM. For the same molecule, the half-life ([6]; hepatocytes) was > 3.61 h, the hepatocyte CLint ([6]; hepatocytes) was < 6.4 µL/min/1e6 cells and the IC50 ([7]; 24 h) was 0.1 µM.
In the case of `O=C(CNC(=O)c1ccc(C2=NO[C@@](c3cc(Cl)cc(Cl)c3)(C(F)(F)F)C2)c2ccccc12)NCC(F)(F)F` [(S)-4-(5-(3,5-dichlorophenyl)-5-(trifluoromethyl)-4,5-dihydroisoxazol-3-yl)-N-(2-oxo-2-((2,2,2-trifluoroethyl)amino)ethyl)-1-naphthamide], the “Brain homogenate % binding” value [8] is reported as >99.9%.
In the case of `O=C(CNC(=O)c1ccc(C2=NO[C@@](c3cc(Cl)cc(C(F)(F)F)c3)(C(F)(F)F)C2)c2ccccc12)NCC(F)(F)F` [(S)-afoxolaner], the “Brain homogenate % binding” value [8] is reported as >99.9%.
In the case of `Cc1cc(C2=NO[C@](c3cc(Cl)cc(Cl)c3)(C(F)(F)F)C2)ccc1C(=O)NCC(=O)NCC(F)(F)F` [Fluralaner, fluralaner], the IC50 ([1]; 24 hours after the blood meal, Kisumu strain) is reported as 0.0333 µM, the IC50 (Anopheles stephensi; 24 h, 1 day after exposure, read-out: IC50 (Anopheles death)) is reported as 0.054 µM and the IC50 (Anopheles stephensi; 48 h, 2 days after exposure, read-out: IC50 (Anopheles death)) is reported as 0.042 µM. The IC50 (Anopheles stephensi; 192 h, 8 days after exposure, read-out: IC50 (Anopheles death)) was 0.037 µM, the IC50 (Anopheles stephensi; 24 hours after the blood meal, read-out: IC50 [95% CI]) was 0.056 µM and the “killing of mosquitos (in words)” value (Anopheles stephensi) was “effective at killing the mosquitos in a dose-dependent manner”. For the same molecule, the “whole blood IC99” value (Anopheles stephensi) was 119 nM and 66 ng/mL, the “embryo-fetal development in rats” value [2] was “unaffected” and the half-life ([3]; cryopreserved hepatocytes) was > 3.61 h. The hepatocyte CLint ([3]; cryopreserved hepatocytes) was < 6.4 µL/min/1e6 cells, the “metabolization when incubated with human hepatocytes” value [3] was “Neither fluralaner nor afoxolaner showed measurable metabolization” and the IC50 ([4]; 24 hours after the blood meal, Tiassalé strain) was 0.0332 µM. For the same molecule, the “activity against strain carrying the resistance-to-dieldrin (rdl) mutation (in words)” value ([4]; Tiassalé strain) was “fully active”, the “killing of sand flies (in words)” value (Lutzomyia longipalpis) was “effective at killing the sand flies in a dose-dependent manner” and the “killing of sand flies (in words)” value (Phlebotomus argentipes) was “effective at killing the sand flies in a dose-dependent manner”. The half-life ([5]; cryopreserved hepatocytes) was > 3.61 h, the hepatocyte CLint ([5]; cryopreserved hepatocytes) was < 6.4 µL/min/1e6 cells and the IC50 (Aedes aegypti (Cayman); 24 hours after the blood meal, Cayman strain) was 0.0358 µM. The half-life ([6]; cryopreserved hepatocytes) was > 3.61 h, the hepatocyte CLint ([6]; cryopreserved hepatocytes) was < 6.4 µL/min/1e6 cells and the IC50 ([7]; 24 hours after the blood meal, New Orleans strain) was 0.0342 µM.
